Results taken from paper PMC8448162, “Single- and Multiple-Ascending-Dose Study of the Safety, Tolerability, and Pharmacokinetics of the Polymyxin Derivative SPR206” (Antimicrobial Agents and Chemotherapy, 2021).
Positions of bridges follow the written chain, without caps; N, C: chain ends. Non-standard residues stand in square brackets, D forms with d. Residues, ends and D or L forms follow the SMILES beside them. *: point of attachment. X1 = NC[C@@H](CC(=O)*)c1cccc(Cl)c1; Dab = NCC[C@H](N)C(=O)O; Dap = NC[C@H](N)C(=O)O

Tests used:
healthy subjects = assay: Safety and tolerability (adverse events, laboratory tests, ECG), first-in-human SAD/MAD study, 1-h i.v. infusion; settings: in vivo
clinical = settings: human, in vivo; for CL renal: CLR (renal clearance)
Procedure: Maximum plasma concentration (Cmax), area under the concentration-time curve from time zero to last measurable time point (AUC0–t), area under the concentration-time curve from time zero to infinity (AUC0–inf), area under the concentration-time curve from time zero to tau (AUC0–tau), time to maximum concentration (Tmax), terminal elimination rate constant (kel), terminal half-life (t1/2), terminal clearance (CL), and volume of distribution (Vz) were determined. In addition, area under the concentration-time curve from 0 to 24 h after the start of infusion (AUC0–24) was determined for the SAD phase, and area under the concentration-time curve from time zero to 8 h from start of infusion (AUC0–8) on day 1 and 0 to 48 h (AUC0–48) following the last dose on day 14 as well as predose trough concentrations were determined for the MAD phase. Urine parameters included cumulative amount of drug excreted in successive urine intervals (Ae), renal clearance (CLR), fraction of cumulative fraction of dose recovered in urine as unchanged drug (Fe), and percentage fraction of cumulative fraction of dose recovered in urine as unchanged drug (Fe%). PK parameters were determined by noncompartmental analysis using Phoenix WinNonlin 8.1.
For the SAD phase, blood samples were obtained predose and at 30, 60, 75, 90, 105, 120, and 150 min and at 3, 5, 8, 12, and 24 h following the start of infusion. Urine was collected for PK assessment predose and over the intervals of 0 to 4 h, 4 to 8 h, 8 to 12 h, and 12 to 24 h after the start of infusion.
In the MAD phase, plasma samples for PK analysis were collected (i) on day 1—pre-dose and at 30, 60, 75, 90, 105, 120, and 150 min and at 3, 5, and 8 h following start of the first infusion; (ii) prior to the morning dose (within 10 min) on days 2, 3, 5, 7, 9, 11, and 13; and (iii) predose and 30, 75, 90, 105, 120, and 150 min and 3, 5, 8, and 12 h (day 14), 24, 36 (day 15), and 48 h (day 16) following start of the last infusion. Urine was collected for PK assessment on day 1 predose, over the intervals 0 to 4 h and 4 to 8 h after start of first infusion, and on days 14 and 15 over the intervals 0 to 4 h, 4 to 8 h, 8 to 12 h, and 12 to 24 h after start of day 14 infusion. Total 24-h urine for calculating CrCl was collected from the morning of day −1 to predose on day 1 and on days 15 and 16 over the interval from 24 to 48 h after the start of the day 14 infusion. Urine creatinine concentrations were measured using 24-h collections prior to the first dose on day 1 and over the 24 to 48 h following start of infusion of the last dose (day 14). Plasma and urine samples for SPR206 levels were analyzed using a validated liquid chromatography-tandem mass spectrometry (LC-MS/MS) method. The assay range for SPR206 was 50 to 5,000 ng/ml in plasma and 100 to 50,000 ng/ml in urine. In plasma, assay precision was 1.3 to 7.7%, accuracy was 1.2 to 9.5%, stability was 194 h at 4°C, and reproducibility was 98.4%. In urine, assay precision was 1.7 to 7.5%, accuracy was −4.8 to 7.3%, stability was 147 h at 4°C, and reproducibility was 97.8%.

## CC(C)C[C@@H]1NC(=O)[C@@H](Cc2ccccc2)NC(=O)[C@H](CCN)NC(=O)[C@@H](NC(=O)[C@H](CN)NC(=O)[C@@H](NC(=O)C[C@H](CN)c2cccc(Cl)c2)[C@@H](C)O)CCNC(=O)[C@H]([C@@H](C)O)NC(=O)[C@H](CCN)NC(=O)[C@H](CCN)NC1=O [SPR206] (X1-T[Dap][Dab][Dab][dF]L[Dab][Dab]T; lactam 3-C (inferred))
Healthy subjects
  subjects with oral hypoesthesia: 6 subjects
  subjects with oral paresthesia: 5 subjects
clinical; 10 mg
  CL renal: 0.567 mL/min
clinical; 25 mg
  CL renal: 4 mL/min
clinical; 50 mg
  CL renal: 13.7 mL/min
clinical; 100 mg
  CL renal: 25.8 mL/min
clinical; 150 mg
  CLR (renal clearance): 1.55 ± 0.17 L/h
  CL renal: 35.5 mL/min
clinical; 200 mg
  CL renal: 29.5 mL/min
clinical; 300 mg
  CL renal: 35.5 mL/min
clinical; 400 mg
  CL renal: 32.8 mL/min
clinical; iv, 25 mg
  Fe (%): 5.32 ± 4.38%
  Fe (fraction of dose recovered in urine as unchanged drug): 0.05 ± 0.04
clinical; iv, 50 mg
  Fe (fraction of dose recovered in urine as unchanged drug): 0.18 ± 0.02
clinical; iv, 100 mg
  Fe (fraction of dose recovered in urine as unchanged drug): 0.27 ± 0.05
clinical; iv, 200 mg, Fe (%)
  dose excreted: 35.7 ± 3.85%
clinical; iv, 200 mg, Fe (fraction of dose recovered in urine as unchanged drug)
  dose excreted: 36 ± 4%
clinical; iv, 300 mg, Fe (fraction of dose recovered in urine as unchanged drug)
  dose excreted: 49 ± 8%
clinical; iv, 400 mg, Fe (%)
  dose excreted: 53.4 ± 6.21%
clinical; iv, 400 mg, Fe (fraction of dose recovered in urine as unchanged drug)
  dose excreted: 53 ± 6%
